Patent US10138247B2, “7-(morpholin-4-yl)pyrazole[1,5-A]pyrimidine derivatives as PI3 kinase inhibitors” (priority 2015, dated 2018)
Read-outs that look alike come from different tables or passages of the source.

Key:
Type in all cases: biochemical
PI3Kδ = biological target: T1, PI3Kδ (Homo sapiens, UniProt O00329); experiment: PI3K kinases inhibition in vitro (ADP-Glo), PI3Kδ
T1 construct: purchased Merck Millipore
Protocol: (§1) Tested compounds were dissolved in 100% DMSO, and thus obtained solutions were serially diluted in 1× reaction buffer. Recombinant kinase was diluted in a reaction mixture comprising 5× reaction buffer, substrate (1 mM sodium diacetate 4,5-bisphosphate phosphatydylinositol (PIP2) solution in 40 mM Tris buffer), and water. To the wells in a 96-wells plate, 5 μl of compounds solutions and 15 μl of the kinase solution in the reaction mixture were added. To initiate interaction of tested chemical compounds with the enzyme, the plate was incubated for 10 minutes at suitable temperature in a plate thermostat with orbital shaking at 600 rpm. Negative control wells contained all above reagents except tested compound and kinase, and positive control wells contained all above reagents except tested compounds. Enzymatic reaction was initiated by adding 5 μl of 150 μM ATP solution, subsequently the plate was incubated for 1 hour at 25° C. or 30° C. (depending on PI3K isoform tested) in plate thermostat with orbital shaking of the plate contents at 600 rpm. Reaction conditions are presented below in Table 12.
(§2) Detection of ADP formed in the enzymatic reaction was then performed using ADP-Glo Kinase Assay (Promega). To the wells of a 96-well plate 25 μl of ADP-Glo Reagent were added, and the plate was incubated for 40 minutes at 25° C. in a plate thermostat with orbital shaking at 600 rpm. Then to the wells of 96-well plate 50 μl of Kinase Detection Reagent were added and the plate was incubated for 40 minutes at 25° C. in a plate thermostat with orbital shaking at 600 rpm. After incubation time, luminescence intensity in a well was measured by Victor Light luminometer (Perkin Elmer, Inc.).
(§3) IC50 values were determined on the basis of luminescence intensity measurements in wells containing tested compounds at different concentrations and in control wells. These values were calculated with Graph Pad 5.03 software by fitting the curve using non-linear regression. Each compound was tested at least in quadruplicates (4 wells) on two 96-well plates using at least 4 wells of each of the controls.

PI3Kβ = biological target: T2, PI3Kβ (Homo sapiens, UniProt P42338); experiment: PI3K kinases inhibition in vitro (ADP-Glo), PI3Kβ
T2 construct: purchased Merck Millipore
T2 sequence (P42338 whole entry): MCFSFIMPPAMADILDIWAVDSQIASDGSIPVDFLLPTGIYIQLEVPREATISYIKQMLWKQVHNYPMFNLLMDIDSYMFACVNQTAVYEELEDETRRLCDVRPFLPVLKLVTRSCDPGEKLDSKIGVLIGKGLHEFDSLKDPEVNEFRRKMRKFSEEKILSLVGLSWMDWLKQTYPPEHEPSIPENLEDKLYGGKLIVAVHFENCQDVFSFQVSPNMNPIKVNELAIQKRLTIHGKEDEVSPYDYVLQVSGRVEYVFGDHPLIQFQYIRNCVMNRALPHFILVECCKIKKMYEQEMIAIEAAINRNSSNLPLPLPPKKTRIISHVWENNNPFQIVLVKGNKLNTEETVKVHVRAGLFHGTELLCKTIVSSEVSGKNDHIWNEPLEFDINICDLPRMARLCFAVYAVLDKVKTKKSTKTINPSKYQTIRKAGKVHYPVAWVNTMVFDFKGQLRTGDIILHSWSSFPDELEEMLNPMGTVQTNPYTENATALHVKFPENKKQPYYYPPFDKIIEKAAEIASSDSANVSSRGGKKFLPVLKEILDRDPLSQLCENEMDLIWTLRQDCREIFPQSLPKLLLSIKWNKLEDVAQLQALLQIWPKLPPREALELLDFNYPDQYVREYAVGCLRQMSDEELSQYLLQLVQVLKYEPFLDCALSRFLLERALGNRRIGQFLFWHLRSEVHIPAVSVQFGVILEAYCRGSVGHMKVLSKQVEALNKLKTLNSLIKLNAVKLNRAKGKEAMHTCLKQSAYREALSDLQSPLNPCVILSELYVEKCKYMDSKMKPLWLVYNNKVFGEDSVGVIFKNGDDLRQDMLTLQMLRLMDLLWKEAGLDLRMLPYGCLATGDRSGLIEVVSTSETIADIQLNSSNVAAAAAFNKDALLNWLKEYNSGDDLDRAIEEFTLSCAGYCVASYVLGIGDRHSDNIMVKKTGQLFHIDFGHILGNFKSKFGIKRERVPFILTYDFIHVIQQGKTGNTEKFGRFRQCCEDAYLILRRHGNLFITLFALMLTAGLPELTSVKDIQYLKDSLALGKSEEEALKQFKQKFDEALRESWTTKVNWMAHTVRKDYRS
T2 sequence (P27986 whole entry, further chain): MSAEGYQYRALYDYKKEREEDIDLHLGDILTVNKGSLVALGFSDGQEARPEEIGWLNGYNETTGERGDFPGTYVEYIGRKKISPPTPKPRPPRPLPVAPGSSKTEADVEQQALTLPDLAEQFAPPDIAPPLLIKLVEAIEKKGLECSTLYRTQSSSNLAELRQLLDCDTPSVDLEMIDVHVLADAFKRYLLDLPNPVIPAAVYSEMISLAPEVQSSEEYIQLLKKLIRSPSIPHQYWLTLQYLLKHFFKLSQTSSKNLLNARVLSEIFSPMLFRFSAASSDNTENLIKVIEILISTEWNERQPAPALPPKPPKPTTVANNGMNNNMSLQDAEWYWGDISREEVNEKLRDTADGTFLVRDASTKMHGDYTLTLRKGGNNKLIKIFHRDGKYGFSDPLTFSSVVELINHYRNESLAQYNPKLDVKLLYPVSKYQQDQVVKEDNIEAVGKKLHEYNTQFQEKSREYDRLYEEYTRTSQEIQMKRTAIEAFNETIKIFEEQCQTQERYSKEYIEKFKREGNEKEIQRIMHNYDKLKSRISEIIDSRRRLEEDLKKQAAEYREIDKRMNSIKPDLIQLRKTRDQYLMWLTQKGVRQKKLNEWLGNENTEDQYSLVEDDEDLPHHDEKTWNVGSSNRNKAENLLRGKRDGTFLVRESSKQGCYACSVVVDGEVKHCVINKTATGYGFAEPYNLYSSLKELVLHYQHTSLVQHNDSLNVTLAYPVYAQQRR
Protocol: as §1, §2, §3

PI3Kγ = biological target: T3, PI3Kγ (Homo sapiens, UniProt P48736); experiment: PI3K kinases inhibition in vitro (ADP-Glo), PI3Kγ
T3 construct: purchased Merck Millipore
T3 sequence (P48736 whole entry): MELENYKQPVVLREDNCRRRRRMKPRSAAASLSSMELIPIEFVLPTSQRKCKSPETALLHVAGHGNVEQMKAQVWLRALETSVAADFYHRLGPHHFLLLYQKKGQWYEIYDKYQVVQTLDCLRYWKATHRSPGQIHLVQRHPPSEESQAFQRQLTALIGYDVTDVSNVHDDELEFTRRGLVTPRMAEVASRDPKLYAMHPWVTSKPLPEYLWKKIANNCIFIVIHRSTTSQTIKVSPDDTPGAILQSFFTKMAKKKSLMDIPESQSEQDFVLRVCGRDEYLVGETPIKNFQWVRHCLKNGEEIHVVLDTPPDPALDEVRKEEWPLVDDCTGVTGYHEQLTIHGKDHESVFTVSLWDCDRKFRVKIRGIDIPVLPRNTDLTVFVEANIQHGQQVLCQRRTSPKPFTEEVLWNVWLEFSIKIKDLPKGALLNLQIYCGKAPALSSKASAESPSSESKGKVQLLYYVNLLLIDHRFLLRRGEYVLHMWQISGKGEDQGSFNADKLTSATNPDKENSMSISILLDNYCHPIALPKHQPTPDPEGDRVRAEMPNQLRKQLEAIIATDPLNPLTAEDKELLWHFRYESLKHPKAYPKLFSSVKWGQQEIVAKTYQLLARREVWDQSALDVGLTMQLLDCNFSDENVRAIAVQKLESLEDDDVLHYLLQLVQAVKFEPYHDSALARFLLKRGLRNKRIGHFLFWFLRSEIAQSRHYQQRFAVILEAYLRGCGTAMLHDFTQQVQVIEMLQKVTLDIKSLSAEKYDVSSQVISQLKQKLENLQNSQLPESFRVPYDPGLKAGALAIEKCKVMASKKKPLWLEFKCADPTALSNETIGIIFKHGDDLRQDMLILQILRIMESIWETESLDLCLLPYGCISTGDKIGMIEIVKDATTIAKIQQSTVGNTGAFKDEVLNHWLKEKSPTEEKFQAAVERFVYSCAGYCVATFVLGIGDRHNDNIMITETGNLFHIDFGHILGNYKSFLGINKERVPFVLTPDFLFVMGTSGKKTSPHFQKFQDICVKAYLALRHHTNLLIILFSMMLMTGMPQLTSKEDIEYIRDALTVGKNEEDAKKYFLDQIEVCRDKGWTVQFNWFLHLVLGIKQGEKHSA
Protocol: as §1, §2, §3

PI3Kα = biological target: T4, PI3Kα (Homo sapiens, UniProt P42336); experiment: PI3K kinases inhibition in vitro (ADP-Glo), PI3Kα
T4 construct: purchased Carna Biosciences
T4 sequence (P42336 whole entry): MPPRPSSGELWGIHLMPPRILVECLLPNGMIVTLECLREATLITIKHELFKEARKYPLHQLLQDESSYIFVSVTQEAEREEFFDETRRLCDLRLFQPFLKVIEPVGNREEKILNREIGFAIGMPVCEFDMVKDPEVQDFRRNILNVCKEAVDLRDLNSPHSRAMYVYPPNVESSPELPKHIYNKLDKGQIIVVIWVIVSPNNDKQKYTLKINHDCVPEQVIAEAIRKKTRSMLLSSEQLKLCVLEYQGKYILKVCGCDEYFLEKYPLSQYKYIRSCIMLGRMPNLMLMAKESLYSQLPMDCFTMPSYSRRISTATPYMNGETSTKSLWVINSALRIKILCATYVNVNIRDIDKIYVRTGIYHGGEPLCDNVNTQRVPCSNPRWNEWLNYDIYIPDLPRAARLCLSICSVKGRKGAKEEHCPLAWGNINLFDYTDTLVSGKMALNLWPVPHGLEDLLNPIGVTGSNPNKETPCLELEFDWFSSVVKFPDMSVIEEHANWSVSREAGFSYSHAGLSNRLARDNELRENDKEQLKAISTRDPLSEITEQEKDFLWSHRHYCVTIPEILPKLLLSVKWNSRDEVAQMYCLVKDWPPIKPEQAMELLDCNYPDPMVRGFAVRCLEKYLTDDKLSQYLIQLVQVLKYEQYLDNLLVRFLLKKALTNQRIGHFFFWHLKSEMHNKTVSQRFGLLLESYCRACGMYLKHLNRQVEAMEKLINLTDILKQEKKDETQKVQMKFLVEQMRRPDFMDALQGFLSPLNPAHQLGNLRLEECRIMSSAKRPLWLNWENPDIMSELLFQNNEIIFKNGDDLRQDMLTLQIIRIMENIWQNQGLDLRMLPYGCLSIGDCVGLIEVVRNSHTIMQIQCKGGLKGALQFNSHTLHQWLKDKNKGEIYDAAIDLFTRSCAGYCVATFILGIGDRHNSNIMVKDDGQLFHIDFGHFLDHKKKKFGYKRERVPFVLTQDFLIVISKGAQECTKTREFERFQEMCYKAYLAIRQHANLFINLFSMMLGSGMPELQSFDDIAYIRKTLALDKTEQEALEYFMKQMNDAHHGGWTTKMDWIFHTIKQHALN
T4 sequence (P27986 whole entry partner): as the sequence (P27986 whole entry, further chain) above
Protocol: as §1, §2, §3

[1] = averaged, recombinant kinase, 25° C., 1 h, PIP2 30 μM, read-out: PI3Kδ IC50
[2] = averaged, recombinant kinase, 30° C., 1 h, PIP2 50 μM, read-out: PI3Kβ IC50
[3] = averaged, recombinant kinase, 30° C., 1 h, PIP2 50 μM, read-out: PI3Kγ IC50

T1 sequence (O00329 whole entry): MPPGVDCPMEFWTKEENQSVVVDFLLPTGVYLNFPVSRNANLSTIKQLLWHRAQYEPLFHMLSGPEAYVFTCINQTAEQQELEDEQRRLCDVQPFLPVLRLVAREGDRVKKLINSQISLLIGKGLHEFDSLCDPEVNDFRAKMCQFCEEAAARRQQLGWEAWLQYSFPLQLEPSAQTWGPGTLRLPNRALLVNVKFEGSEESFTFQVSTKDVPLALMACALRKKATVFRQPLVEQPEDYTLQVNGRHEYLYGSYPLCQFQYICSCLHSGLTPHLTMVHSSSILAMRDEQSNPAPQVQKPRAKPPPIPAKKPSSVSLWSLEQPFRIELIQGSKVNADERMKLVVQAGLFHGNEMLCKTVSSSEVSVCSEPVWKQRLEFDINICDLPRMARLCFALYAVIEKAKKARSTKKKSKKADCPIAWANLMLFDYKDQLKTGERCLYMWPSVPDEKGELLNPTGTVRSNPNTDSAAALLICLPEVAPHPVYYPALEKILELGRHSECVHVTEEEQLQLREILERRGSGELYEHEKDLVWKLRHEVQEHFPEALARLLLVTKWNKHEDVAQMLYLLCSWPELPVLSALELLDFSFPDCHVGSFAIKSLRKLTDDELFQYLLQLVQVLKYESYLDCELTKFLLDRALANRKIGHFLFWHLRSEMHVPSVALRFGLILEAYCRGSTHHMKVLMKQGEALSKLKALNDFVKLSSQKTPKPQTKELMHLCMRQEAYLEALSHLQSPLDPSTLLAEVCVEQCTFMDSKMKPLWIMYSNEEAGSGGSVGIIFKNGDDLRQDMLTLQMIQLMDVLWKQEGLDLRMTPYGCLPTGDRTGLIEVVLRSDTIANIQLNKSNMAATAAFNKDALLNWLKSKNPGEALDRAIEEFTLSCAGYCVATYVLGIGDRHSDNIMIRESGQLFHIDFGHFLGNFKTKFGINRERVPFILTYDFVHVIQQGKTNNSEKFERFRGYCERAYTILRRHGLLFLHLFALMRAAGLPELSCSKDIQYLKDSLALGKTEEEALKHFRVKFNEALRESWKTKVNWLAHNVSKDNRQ
T1 sequence (P27986 whole entry, further chain): as the sequence (P27986 whole entry, further chain) above

CC(C)(C)N1CCN(Cc2cc3nc(-c4cnc(N)nc4)cc(N4CCOCC4)n3n2)CC1 [Example 17, 5-(2-aminopyrimidin-5-yl)-2-((4-tert-butylpiperazin-1-yl)methyl)-7-(morpholin-4-yl)pyrazolo[1,5-a]-pyrimidine]
IC50 (PI3Kδ; [1]): < 0.1 µM
IC50 (PI3Kβ; [2]): > 1 µM
IC50 (PI3Kγ; [3]): > 1 µM
IC50 (PI3Kα): > 1 µM

CC(C)(O)C1CCN(Cc2cc3nc(-c4ccc(N)nc4)cc(N4CCOCC4)n3n2)CC1 [Example 19, 5-(2-aminopyridin-5-yl)-2-((4-(2-hydroxypropan-2-yl)piperidin-1-yl)methyl)-7-(morpholin-4-yl)-pyrazolo[1,5-a]pyrimidine]
IC50 (PI3Kδ; [1]): < 0.1 µM
IC50 (PI3Kβ; [2]): > 1 µM
IC50 (PI3Kγ; [3]): > 1 µM
IC50 (PI3Kα): > 1 µM

CCN1CCN(Cc2cc3nc(-c4cccc5[nH]ccc45)cc(N4CCOCC4)n3n2)CC1 [Example 22, 2-((4-ethylpiperazin-1-yl)methyl)-5-(1H-indol-4-yl)-7-(morpholin-4-yl)pyrazolo[1,5-a]pyrimidine]
IC50 (PI3Kδ): < 0.1 µM
IC50 (PI3Kβ): > 1 µM
IC50 (PI3Kγ): > 1 µM
IC50 (PI3Kα): > 1 µM

c1cc(-c2cc(N3CCOCC3)n3nc(CN4CC(N5CCOCC5)C4)cc3n2)c2cc[nH]c2c1 [Example 25, 5-(1H-indol-4-yl)-2-((3-(morpholin-4-yl)azetidin-1-yl)methyl)-7-(morpholin-4-yl)pyrazolo[1,5-a]-pyrimidine]
IC50 (PI3Kδ): < 0.1 µM
IC50 (PI3Kβ): > 1 µM
IC50 (PI3Kγ): > 1 µM
IC50 (PI3Kα): > 1 µM

CC(C)(C)C1CCN(Cc2cc3nc(-c4cccc5[nH]ccc45)cc(N4CCOCC4)n3n2)CC1 [Example 28, 2-((4-tert-butylpiperidin-1-yl)-methyl)-5-(1H-indol-4-yl)-7-(morpholin-4-yl)pyrazolo[1,5-a]-pyrimidine]
IC50 (PI3Kδ): < 0.1 µM
IC50 (PI3Kβ): > 1 µM
IC50 (PI3Kγ): > 1 µM
IC50 (PI3Kα): > 1 µM

CC(C)(C)N1CCN(Cc2cc3nc(-c4cncc5[nH]ccc45)cc(N4CCOCC4)n3n2)CC1 [Example 30, 5-(1H-6-azaindol-4-yl)-2-((4-tert-butylpiperazin-1-yl)methyl)-7-(morpholin-4-yl)pyrazolo[1,5-a]-pyrimidine]
IC50 (PI3Kδ): < 0.1 µM
IC50 (PI3Kβ): > 1 µM
IC50 (PI3Kγ): > 1 µM
IC50 (PI3Kα): > 1 µM

O=S1(=O)CCN(C2CN(Cc3cc4nc(-c5cccc6[nH]ccc56)cc(N5CCOCC5)n4n3)C2)CC1 [Example 31, 5-(1H-indol-4-yl)-2-((3-(1,1-dioxothiomorpholin-4-yl)azetidin-1-yl)methyl)-7-(morpholin-4-yl)-pyrazolo[1,5-a]pyrimidine]
IC50 (PI3Kδ): < 0.1 µM
IC50 (PI3Kβ): > 1 µM
IC50 (PI3Kγ): > 1 µM
IC50 (PI3Kα): > 1 µM

CC(C)(O)C1CCN(Cc2cc3nc(-c4ccnc5[nH]ccc45)cc(N4CCOCC4)n3n2)CC1 [Example 33, 5-(1H-7-azaindol-4-yl)-2-((4-(2-hydroxypropan-2-yl)piperidin-1-yl)methyl)-7-(morpholin-4-yl)-pyrazolo[1,5-a]pyrimidine]
IC50 (PI3Kδ; [1]): < 0.1 µM
IC50 (PI3Kβ; [2]): > 1 µM
IC50 (PI3Kγ; [3]): > 1 µM
IC50 (PI3Kα): > 1 µM

Fc1ccc2[nH]ccc2c1-c1cc(N2CCOCC2)n2nc(CN3CCN(C4COC4)CC3)cc2n1 [Example 35]
IC50 (PI3Kδ; [1]): < 0.1 µM
IC50 (PI3Kβ; [2]): > 1 µM
IC50 (PI3Kγ; [3]): > 1 µM
IC50 (PI3Kα): > 1 µM

CC(C)(O)C1CCN(Cc2cc3nc(-n4c(C(F)F)nc5ccccc54)cc(N4CCOCC4)n3n2)CC1 [Example 51, 5-(2-(difluoromethyl)benzimidazol-1-yl)-2-((4-(2-hydroxypropan-2-yl)piperidin-1-yl)methyl)-7-(morpholin-4-yl)pyrazolo[1,5-a]-pyrimidine]
IC50 (PI3Kδ; [1]): < 0.1 µM
IC50 (PI3Kβ; [2]): > 1 µM
IC50 (PI3Kγ; [3]): > 1 µM
IC50 (PI3Kα): > 1 µM

CC(C)(C)N1CCN(Cc2cc3nc(-n4c(C(F)F)nc5cnccc54)cc(N4CCOCC4)n3n2)CC1 [Example 62, 5-(2-(difluoromethyl)imidazo[4,5-c]pyridin-1-yl)-2-((4-tert-butylpiperazin-1-yl)methyl)-7-(morpholin-4-yl)pyrazolo[1,5-a]-pyrimidine]
IC50 (PI3Kδ; [1]): 0.1 to 1 µM
IC50 (PI3Kβ; [2]): > 1 µM
IC50 (PI3Kγ; [3]): > 1 µM
IC50 (PI3Kα): > 1 µM

FC(F)c1nc2ccccc2n1-c1cc(N2CCOCC2)n2nc(CN3CC(N4CCOCC4)C3)cc2n1 [Example 64, 5-(2-(difluoromethyl)benzimidazol-1-yl)-2-((3-(morpholin-4-yl)-azetidin-1-yl)methyl)-7-(morpholin-4-yl)pyrazolo[1,5-a]pyrimidine]
IC50 (PI3Kδ; [1]): < 0.1 µM
IC50 (PI3Kβ; [2]): > 1 µM
IC50 (PI3Kγ; [3]): > 1 µM
IC50 (PI3Kα): 0.1 to 1 µM

FC(F)c1nc2ccccc2n1-c1cc(N2CCOCC2)n2nc(CN3CC(N4CCC(F)(F)CC4)C3)cc2n1 [Example 66, 5-(2-(difluoromethyl)benzimidazol-1-yl)-2-((3-(4,4-difluoropiperidin-1-yl)azetidin-1-yl)methyl)-7-(morpholin-4-yl)pyrazolo[1,5-a]-pyrimidine]
IC50 (PI3Kδ; [1]): < 0.1 µM
IC50 (PI3Kβ; [2]): > 1 µM
IC50 (PI3Kγ; [3]): > 1 µM
IC50 (PI3Kα): 0.1 to 1 µM

Cc1c(CN2CCN(C(C)(C)C)CC2)nn2c(N3CCOCC3)cc(-n3c(C(F)F)nc4ccccc43)nc12 [Example 68, 5-(2-(difluoromethyl)benzimidazol-1-yl)-3-methyl-2-((4-tert-butylpiperazin-1-yl)methyl)-7-(morpholin-4-yl)pyrazolo[1,5-a]-pyrimidine]
IC50 (PI3Kδ; [1]): < 0.1 µM
IC50 (PI3Kβ; [2]): > 1 µM
IC50 (PI3Kγ; [3]): > 1 µM
IC50 (PI3Kα): 0.1 to 1 µM

Cc1c(CN2CCC(C(C)(C)O)CC2)nn2c(N3CCOCC3)cc(-n3c(C(F)F)nc4ccccc43)nc12 [Example 69, 5-(2-(difluoromethyl)benzimidazol-1-yl)-3-methyl-2-((4-(2-hydroxy-propan-2-yl)piperidin-1-yl)methyl)-7-(morpholin-4-yl)pyrazolo[1,5-a]-pyrimidine]
IC50 (PI3Kδ; [1]): < 0.1 µM
IC50 (PI3Kβ; [2]): > 1 µM
IC50 (PI3Kγ; [3]): > 1 µM
IC50 (PI3Kα): 0.1 to 1 µM

CC(C)(C)N1CCN(C(=O)c2cc3nc(-c4cccc5[nH]ccc45)cc(N4CCOCC4)n3n2)CC1 [Example 70, 2-(4-tert-butylpiperazin-1-ylcarbonyl)-5-(1H-indol-4-yl)-7-(morpholin-4-yl)pyrazolo[1,5-a]pyrimidine]
IC50 (PI3Kδ; [1]): < 0.1 µM
IC50 (PI3Kβ; [2]): > 1 µM
IC50 (PI3Kγ; [3]): > 1 µM
IC50 (PI3Kα): > 1 µM

CC(C)(C)N1CCN(Cc2nn3c(N4CCOCC4)cc(-n4c(C(F)F)nc5ccccc54)nc3c2Cl)CC1 [Example 71, 5-(2-(difluoromethyl)benzimidazol-1-yl)-3-chloro-2-((4-tert-butylpiperazin-1-yl)methyl)-7-(morpholin-4-yl)pyrazolo[1,5-a]pyrimidine]
IC50 (PI3Kδ; [1]): < 0.1 µM
IC50 (PI3Kβ; [2]): > 1 µM
IC50 (PI3Kγ; [3]): > 1 µM
IC50 (PI3Kα): 0.1 to 1 µM
